What was measured:
[1] = system: S. typhimurium TA98; assay: Ames microplate test, TA98; format: cell-based, Salmonella typhimurium
Description: (§1) Bacteria were grown overnight in growth medium.

[2] = system: S. typhimurium TA1535; assay: Ames microplate test, TA1535;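 also: bacteria exposed 90 min at 37 °C in exposure medium, then 48 h in indicator medium in 384-well plates, yellow (revertant) wells counted per condition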
Description: (§3) The study used the Ames microplate test (Ames MPF™ Penta 2 by Xenometrix, Allschwil, Switzerland). Growth medium, exposure medium, indicator medium, positive controls, hepatic microsomal fraction, NADP, glucose-6-phosphate, Salmonella typhimurium and Escherichia coli strains were components of the purchased experimental kit. Bacteria were grown overnight in growth medium. They were then exposed to the test compound at the appropriate concentration in exposure medium without or with the rat microsomal fraction S9 in 24-well plates for 90 min at 37° C. with shaking. Then, indicator medium was added to the wells and pipetted into 384-well plates, which were incubated for 48 hours at 37° C. without shaking. Results were assessed by counting the wells in which the medium turned yellow for each experimental condition.

[3] = system: primary melanocytes; assay: Safety, MTT test in primary melanocytes; format: cell-based; conditions: 48 hours
Description: (§2) In order to test the safety of the compounds, both normal human cells were used: keratinocytes (HaCaT), fibroblasts (BJ), primary melanocytes that occur in the skin, as well as human cancer cells: the hepatocarcinoma line HepG2 and the neuroblastoma line SH-SY5Y, which are considered a model for the assessment of hepatocytotoxicity and neurocytotoxicity. The concentrations of the tested compounds in the range of […] were used in the studies. The cell lines used in the research were purchased from the American Type Culture Collection (ATCC) and were cultured in media recommended by the manufacturer with the addition of FBS and antibiotics in an incubator ensuring appropriate culture conditions, i.e. humidity, temperature and CO2 concentration. Cells were seeded into multiwell plates and incubated with the test compounds for 48 hours. After this time, MTT and LDH tests were performed to assess cell viability. The MTT test is based on the ability to transform the substrate: [3-(4,5-dimethyl-2-thiazolyl)-2,5-diphenyl-2H-tetrazolium bromide into a colored product only by living cells. The absorbance at 570 nm, which corresponds to the absorption maximum for the product, is directly proportional to cell viability. The LDH test is based on testing the activity of the enzyme lactate dehydrogenase in the culture medium, which is released from cells as a result of damage to the cell membrane, e.g. as a result of cell death. Triton X-100 was used as a positive control in the test. The determination is colorimetric, the substrate is transformed by the released enzyme into a colored product, an increase in absorbance indicates a larger amount of the released enzyme, and thus confirms greater damage to cell membranes. Tables 7 and 8 present the results obtained, which correspond to the viability of cells incubated with the compounds in relation to the viability of cells constituting a control sample, i.e. incubated with the solvent (DMSO) at the same concentration as in the case of the groups tested in the MTT test or in relation to the results obtained for the Triton X-100 positive control in the LDH test. They indicate that the compounds are safe at the concentrations tested.

[4] = system: keratinocytes (HaCaT); assay: Safety, MTT test in keratinocytes; format: cell-based; conditions: 48 hours
Description: as §2

[5] = system: E. coli WP2; assay: Ames microplate test, E. coli WP2;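 also: bacteria exposed to compound for 90 min at 37 °C in 24-well plates, then transferred with indicator medium to 384-well plates and incubated 48 h before yellow well counting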
[6] = system: fibroblasts (BJ); assay: Safety, LDH test in fibroblasts; format: cell-based; conditions: 48 hours, vs Triton X-100
Description: as §2

[7] = system: S. typhimurium TA100; assay: Ames microplate test, TA100; format: cell-based, Salmonella typhimurium
Description: as §3

[8] = system: hepatocarcinoma HepG2; assay: Safety, MTT test in HepG2; format: cell-based; conditions: 48 hours
Description: as §2

[9] = system: hepatocarcinoma HepG2; assay: Safety, LDH test in HepG2; format: cell-based; conditions: 48 hours, vs Triton X-100
Description: as §2

[10] = system: neuroblastoma SH-SY5Y; assay: Safety, MTT test in SH-SY5Y; format: cell-based; conditions: 48 hours
Description: as §2

[11] = system: neuroblastoma SH-SY5Y; assay: Safety, LDH test in SH-SY5Y; format: cell-based; conditions: 48 hours, vs Triton X-100
Description: as §2

[12] = system: primary melanocytes; assay: Safety, LDH test in primary melanocytes; format: cell-based; conditions: 48 hours, vs Triton X-100
Description: as §2

[13] = system: S. typhimurium TA1537; assay: Ames microplate test, TA1537; format: cell-based, Salmonella typhimurium
Description: as §1

[14] = system: human reconstructed epidermis model EpiDerm; assay: Extended skin irritation test in reconstructed human epidermis EpiDerm; format: cell-based
Description: Extended Skin Irritation Tests on Reconstructed Human Epidermis-Exposure Time Extended to 7 Days.
In order to perform extended skin irritation (safety) tests on the reconstructed human epidermis, the exposure time to the tested compounds was extended to 2 and 7 days in the human reconstructed epidermis model EpiDerm™ from MatTek. The epidermis was cultured according to the manufacturer's recommendations, using appropriate multi-well plates and culture media. Solutions of the tested compounds were applied to the epidermis using a positive displacement pipette and distributed using a sterile glass bulb headed Pasteur pipette. […] The epidermis was cultured in an incubator ensuring appropriate humidity, temperature (37° C.) and CO2 concentration (5%). The medium was replaced daily. After an appropriate incubation time, i.e. 2 days or 7 days, the epidermis was rinsed with sterile DPBS and incubated with MTT (Thiazolyl Blue Tetrazolium bromide) solution at 37° C. for 3 hours. After this time, a purple color of formazan was observed, correlated with tissue viability. […] Moreover, in the medium collected after the first 24 hours of EpiDerm epidermis culture, the level of interleukin 1α (Il-1α), which is a mediator of inflammation, was determined. Its level correlates with the unfavorable (irritating) effect of the tested substances on the epidermis. The level of IL-1α was determined using the Cayman Elisa test.

O=C(/C=C/c1ccc(Cl)cc1)NCCCCCO [Compound A-111, (2E)-3-(4-chlorophenyl)-N-(5-hydroxypentyl)prop-2-enamide]
Increase in the number of yellow wells compared to the reference level, TA98 ([1]; 0.5 mM, + S9): 1.50
Increase in the number of yellow wells compared to the reference level, TA98 ([1]; 0.5 mM, without S9): 0.7
Increase in the number of yellow wells compared to the reference level, TA98 ([1]; 1.0 mM, + S9): 0.83
Increase in the number of yellow wells compared to the reference level, TA98 ([1]; 1.0 mM, without S9): 0.44
Increase in the number of yellow wells compared to the reference level, TA98 ([1]; 2.0 mM, + S9): 1.50
Increase in the number of yellow wells compared to the reference level, TA98 ([1]; 2.0 mM, without S9): 1.00
Increase in the number of yellow wells compared to the reference level, TA1535 ([2]; 0.5 mM, + S9): 0.58
Increase in the number of yellow wells compared to the reference level, TA1535 ([2]; 0.5 mM, without S9): 0.55
Increase in the number of yellow wells compared to the reference level, TA1535 ([2]; 1.0 mM, + S9): 0.35
Increase in the number of yellow wells compared to the reference level, TA1535 ([2]; 1.0 mM, without S9): 0.18
Increase in the number of yellow wells compared to the reference level, TA1535 ([2]; 2.0 mM, + S9): 0.23
Increase in the number of yellow wells compared to the reference level, TA1535 ([2]; 2.0 mM, without S9): 1.65
MTT, Primary melanocytes ([3]; 100 μM): 104.51 ± 1.19 % of solvent control
MTT, Primary melanocytes ([3]; 150 μM): 103.09 ± 1.79 % of solvent control
MTT, Primary melanocytes ([3]; 200 μM): 99.25 ± 1.92 % of solvent control
MTT, Primary melanocytes ([3]; 250 μM): 93.39 ± 1.60 % of solvent control
MTT, Keratinocytes (HaCaT) ([4]; 100 μM): 101.68 ± 3.45 % of solvent control
MTT, Keratinocytes (HaCaT) ([4]; 150 μM): 101.56 ± 1.94 % of solvent control
MTT, Keratinocytes (HaCaT) ([4]; 200 μM): 101.04 ± 2.77 % of solvent control
MTT, Keratinocytes (HaCaT) ([4]; 250 μM): 91.57 ± 2.10 % of solvent control
Increase in the number of yellow wells compared to the reference level, E. coli WP2 ([5]; 0.5 mM, + S9): 0.62
Increase in the number of yellow wells compared to the reference level, E. coli WP2 ([5]; 0.5 mM, without S9): 1.46
Increase in the number of yellow wells compared to the reference level, E. coli WP2 ([5]; 1.0 mM, + S9): 0.71
Increase in the number of yellow wells compared to the reference level, E. coli WP2 ([5]; 1.0 mM, without S9): 1.10
Increase in the number of yellow wells compared to the reference level, E. coli WP2 ([5]; 2.0 mM, + S9): 0.98
Increase in the number of yellow wells compared to the reference level, E. coli WP2 ([5]; 2.0 mM, without S9): 1.10
LDH, Fibroblasts (BJ) ([6]; 100 μM): 5.25 percentage of positive control
LDH, Fibroblasts (BJ) ([6]; 150 μM): 5.37 percentage of positive control
LDH, Fibroblasts (BJ) ([6]; 200 μM): 8.43 percentage of positive control
LDH, Fibroblasts (BJ) ([6]; 250 μM): 14.90 percentage of positive control
Increase in the number of yellow wells compared to the reference level, TA100 ([7]; 0.5 mM, + S9): 0.97
Increase in the number of yellow wells compared to the reference level, TA100 ([7]; 0.5 mM, without S9): 0.74
Increase in the number of yellow wells compared to the reference level, TA100 ([7]; 1.0 mM, + S9): 0.47
Increase in the number of yellow wells compared to the reference level, TA100 ([7]; 1.0 mM, without S9): 0.39
Increase in the number of yellow wells compared to the reference level, TA100 ([7]; 2.0 mM, + S9): 0.67
Increase in the number of yellow wells compared to the reference level, TA100 ([7]; 2.0 mM, without S9): 0.42
MTT, Hepatocarcinoma HepG2 ([8]; 100 μM): 101.10 ± 6.01 % of solvent control
MTT, Hepatocarcinoma HepG2 ([8]; 150 μM): 97.87 ± 3.27 % of solvent control
MTT, Hepatocarcinoma HepG2 ([8]; 200 μM): 98.19 ± 3.27 % of solvent control
MTT, Hepatocarcinoma HepG2 ([8]; 250 μM): 96.27 ± 2.57 % of solvent control
LDH, Hepatocarcinoma HepG2 ([9]; 100 μM): 4.90 percentage of positive control
LDH, Hepatocarcinoma HepG2 ([9]; 150 μM): 4.73 percentage of positive control
LDH, Hepatocarcinoma HepG2 ([9]; 200 μM): 5.48 percentage of positive control
LDH, Hepatocarcinoma HepG2 ([9]; 250 μM): 9.75 percentage of positive control
MTT, Neuroblastoma SH-SY5Y ([10]; 100 μM): 100.14 ± 3.22 % of solvent control
MTT, Neuroblastoma SH-SY5Y ([10]; 150 μM): 99.32 ± 3.36 % of solvent control
MTT, Neuroblastoma SH-SY5Y ([10]; 200 μM): 100.55 ± 2.31 % of solvent control
MTT, Neuroblastoma SH-SY5Y ([10]; 250 μM): 99.93 ± 4.36 % of solvent control
LDH, Neuroblastoma SH-SY5Y ([11]; 100 μM): 4.90 percentage of positive control
LDH, Neuroblastoma SH-SY5Y ([11]; 150 μM): 4.61 percentage of positive control
LDH, Neuroblastoma SH-SY5Y ([11]; 200 μM): 5.98 percentage of positive control
LDH, Neuroblastoma SH-SY5Y ([11]; 250 μM): 6.77 percentage of positive control
LDH, Primary melanocytes ([12]; 100 μM): 3.31 percentage of positive control
LDH, Primary melanocytes ([12]; 150 μM): 4.95 percentage of positive control
LDH, Primary melanocytes ([12]; 200 μM): 13.38 percentage of positive control
LDH, Primary melanocytes ([12]; 250 μM): 18.41 percentage of positive control
Increase in the number of yellow wells compared to the reference level, TA1537 ([13]; 0.5 mM, + S9): 0.27
Increase in the number of yellow wells compared to the reference level, TA1537 ([13]; 0.5 mM, without S9): 0.80
Increase in the number of yellow wells compared to the reference level, TA1537 ([13]; 1.0 mM, + S9): 0.45
Increase in the number of yellow wells compared to the reference level, TA1537 ([13]; 1.0 mM, without S9): 0.54
Increase in the number of yellow wells compared to the reference level, TA1537 ([13]; 2.0 mM, + S9): 0.27
Increase in the number of yellow wells compared to the reference level, TA1537 ([13]; 2.0 mM, without S9): 0.54
Viability [% of control, mean ± SD] 2 days ([14]; 0.1% in 50% PEG (10 μL)): 88.42 ± 1.25 % of control
Viability [% of control, mean ± SD] 7 days ([14]; 0.1% in 50% PEG (10 μL)): 107.77 ± 3.12 % of control
Viability [% of control, mean ± SD] 2 days ([14]; 0.5% in 50% PEG (10 μL)): 92.02 ± 3.47 % of control
Viability [% of control, mean ± SD] 7 days ([14]; 0.5% in 50% PEG (10 μL)): 113.85 ± 4.03 % of control
Viability [% of control, mean ± SD] 2 days ([14]; 1.0% in 50% PEG (10 μL)): 98.56 ± 11.78 % of control
Viability [% of control, mean ± SD] 7 days ([14]; 1.0% in 50% PEG (10 μL)): 100.41 ± 1.52 % of control
Il-1α in culture medium ([14]; 1.0% in 50% PEG (10 μL), medium after first 24 hours): 15.89 ± .057 pg/mL
